Test results: patent US20250270170A1, “2,3-DIMETHOXY-5-METHYL-1,4-BENZOQUINONE ALKYL ALCOHOL DERIVATIVE AND USE THEREOF” (BEIJING ANJIANXI BIO-MEDICAL TECHNOLOGY CO., LTD., priority 2021, published 2025)
“And” between values parts separate entries of the source, which are not always exact repeats. Identical values can stand only once.

Columns and labels:
[1] = tested on: cisplatin-induced acute kidney damage in mice; assay: Example 11: serum creatinine (Cre) in cisplatin-induced acute kidney damage model; assay type: in vivo, C57BL/6J mice; details: for Serum creatinine (Cre) level after the assay, x (mean): group mean; for Serum creatinine (Cre) level after the assay, x (mean) / Serum creatinine (Cre) level after the assay: cisplatin model; for Serum creatinine (Cre) level after the assay: individual animals No. 1-7
Procedure: 42 male C57BL/6J mice (age: 6 to 8 weeks, body weight 18-20 g, certificate number: 11400700238365) were purchased from Si Pei Fu (Beijing) Biotechnology Co., Ltd., and raised in an SPF-grade animal room of the Institute of Materia Medica, Chinese Academy of Medical Sciences, at a temperature of 20 to 25° C., a relative humidity of 40% to 70%, and a cycle of 12 hours of light and 12 hours of dark. The animals had free access to water and food. After 3 days of normal feeding, mice with good physical conditions after the veterinary examination were selected for this assay. Before grouping, a marker was used to mark on the base of the animals' tail. After grouping, each animal was marked with an ear cutout (7 mice in each group).
Assay animals: 42 7-week-old male C57 mice were used for animal testing after an adaptive feeding.
Group 1: blank control group;
The preparation of the R01 formulation administration test solution was the same as that in Example 5: an appropriate amount of the R01 formulation was weighed according to the three dosages set in the assay, respectively, and an appropriate volume of 0.5% CMC-Na aqueous solution was added. The mixture was vortexed and sonicated until mixed evenly, to give the administration test solutions with concentrations of […], respectively, which were ready for use.
Animal testing period: 7 days (excluding adaptive feeding), hereinafter referred to as: D1-D7.
1. The first group was a solvent control group: N=7, all mice were males (the same below); • a) 0.5% solution of sodium carboxymethyl cellulose was gavagely administered from D1 to D6 (twice a day for each animal, with an interval of 8 hours between the morning and the afternoon). • b) Physiological saline was intraperitoneally injected in one-time on D4. • c) On D7, blood was collected from the orbit for euthanasia (300 ul of serum was extracted), the left kidney was fixed in formaldehyde, and the right kidney was preserved in liquid nitrogen (WB study may be carried out).
1) The concentrations of urea nitrogen and creatinine in peripheral blood serum were tested.
The body weight of the animals when being grouped for administration in each group was recorded. The body weight and the kidney weight at the end of the assay were also recorded, and the kidney coefficient was calculated. The creatinine and urea nitrogen values in the blood samples sent for testing were recorded. The kidneys were stained with HE and PAS, and the slides were scanned. A report was issued after the pathological analysis.
The assay data were calculated and processed statistically using Microsoft Office Excel 2007 software. Unless otherwise specified, the data were expressed as mean±standard error (Mean±SE), and t-test was used for comparison between two groups.

[2] = Example 5: acute toxicity, single gavage administration; assay type: in vivo, ICR mice; details: both sexes, mouse, in vivo, po, ICR mice, single gavage administration
Procedure: (§1) Preparation of the administration formulation of the test sample: A mixture of the compound of formula (I) and ethanol/ethyl acetate (v/v, 1/3) with a ratio of 1:1.5 was dissolved by sonication at room temperature. 2.25 equivalents of compound of formula (I) of PVP were added, and the mixture was stirred vigorously at room temperature for 20 minutes. Then, 2 equivalents of the compound of formula (I) of lactose were added, and the mixture was stirred vigorously at room temperature for 20 minutes. The mixture was dried in an oven at 50° C. and then pulverized to give a yellow powder formulation of the compound of formula (I). Then, an appropriate amount of the formulation of compound of formula (I) was weighed, and an appropriate volume of 0.5% CMC-Na aqueous solution was added. The mixture was vortexed and sonicated to mix evenly (if necessary, shear emulsification may be performed), to give an administration formulation of the test sample. The administration formulation was prepared twice a week, and 3 or 4 days of dosage was prepared each time, which was divided and stored in a 0-8° C. refrigerator for later use. When the test sample was used, a final volume mark was marked on a container, and a required amount of the test sample was weighed (weighing weight of the test sample=theoretical dosage*conversion factor) into a clean and dry container. An appropriate amount of solvent was firstly added, and the mixture was stirred and mixed thoroughly, and sonicated if necessary. The solvent was further added to the final volume mark to dilute and mix evenly, to give a visually uniform formulation. […] The administration formulation of the test sample was stable within 24 hours when being stored airtightly at room temperature in dark, and was stable within 8 days when being stored airtightly at 2° C. to 8° C. in dark.
(§2) • Species: ICR mice • Grade: SPF grade
(§3) Number and gender of the animals being used: 40, half male and half female;
(§4) Body weight: The body weight of the female group was from 25.9 to 29.7 g; the body weight of the male group was from 27.7 to 30.8 g;
(§5) Age at the time of administration: 38 to 44 days (female), 31 to 44 days (male)
(§6) Route of Administration: Gavage Administration
(§7) Administration frequency: once/day
(§8) Administration period: 1 day
(§9) The dosage was calculated based on the body weight of the animals weighed on D1 after fasting (with water access) overnight. The feed was given approximately 2 hours after drug administration.
(§10) The administration formulation in each group was stirred at room temperature for at least 10 minutes, and suspended uniformly with visual inspection before the administration. The administration formulation was required to be continually stirred during the administration.
(§11) Observation indicators: observation of general physical signs, body weight, food intake, animal anatomy and histopathological examination were included.

[3] = tested on: ICR mice; assay: as above; assay type: in vivo
Procedure: as §1, §2, §3, §4, §5, §6, §7, §8, §9, §10, §11

## COC1=C(OC)C(=O)C(CCCCCCCCCCOC(=O)Cc2c(C)n(C(=O)c3ccc(Cl)cc3)c3ccc(OC)cc23)=C(C)C1=O [compound of formula (I)]
[1]; cisplatin 10 mg/kg alone (vs blank, P<0.01) or with amifostine 50 mg/kg i.p. / R01 6, 18, 36 mg/kg bid
  serum creatinine value: equivalent to that of the blank control group
[1]; R01 6 mg/kg
  Serum creatinine (Cre) level after the assay, x (mean): 18.4 mg/dL
[1]; R01 18 mg/kg
  Serum creatinine (Cre) level after the assay, x (mean): 15.4 mg/dL
[1]; R01 36 mg/kg
  Serum creatinine (Cre) level after the assay, x (mean): 15.3 mg/dL
[1]; R01 6 mg/kg, listed as R01, 6 mg/kg
  Serum creatinine (Cre) level after the assay: 20 mg/dl (2×) and 23 mg/dl and 26 mg/dl and 17 mg/dl and 18 mg/dl and 5 mg/dl
[1]; R01 18 mg/kg, listed as R01, 18 mg/kg
  Serum creatinine (Cre) level after the assay: 15 mg/dl (2×) and 12 mg/dl (2×) and 17 mg/dl and 16 mg/dl and 21 mg/dl
[1]; R01 36 mg/kg, listed as R01, 36 mg/kg
  Serum creatinine (Cre) level after the assay: 15 mg/dl (3×) and 13 mg/dl and 17 mg/dl and 16 mg/dl (2×)
[2]
  LD50 at 1 day: > 3000 mg/kg
[2]; read-out: maximum tolerated dose (MTD)
  MTD at 1 day: 300 mg/kg/day
[3]; 300 mg/kg/d single gavage
  clinical observation (general physical signs): no obvious abnormal symptoms
[3]; 1000 mg/kg/d single gavage, animals other than the dead one
  clinical observation (general physical signs): No obvious abnormal symptoms
[3]; 3000 mg/kg/d single gavage, D3, vs vehicle control (P<0.05)
  body weight of male animals: significant decrease
[3]; 3000 mg/kg/d single gavage, return to normal on D8
  clinical observation (general physical signs): piloerection symptoms from D2 to D7
[3]; each dosage group (300, 1000, 3000 mg/kg/d) vs vehicle control
  food intake: basically consistent
[3]; each group, naked eye observation of organs and tissues
  gross anatomy examination: No obvious abnormalities
